Test results taken from US11179363B2, “Non-steroidal selective glucocorticoid receptor agonistic modulators (SEGRAMs) and uses thereof” (ASSOCIATION POUR LA RECHERCHE À L'IGBMC (ARI), priority 2017, dated 2021).

Tests used:
[1] = tested on: thymus, spleen, adrenal gland and kidney; experiment: Organ weights (thymus, spleen, adrenal gland, kidney) after three-month treatment; type: in vivo, B6 male mice; conditions: s.c. 1 mg/kg daily, three months
Experimental: B6 male mice (8-week-old) were daily subjected for three months to a subcutaneous injection of either vehicle (NaCl 0.9%), Dex, CpdX, CpdX(eA), CpdX(eB), CpdX-D3, CpdX-D3(eA) or CpdX-D3(eB) (1 mg/kg body weight, diluted in vehicle). Following these treatments, four organs (thymus, spleen, adrenal gland and kidney) were harvested and weighted.

[2] = tested on: collagen-induced Th17 rheumatoid arthritis-like inflammation; experiment: Collagen-induced arthritis (CIA); type: in vivo, mice (DBA-1 strain); conditions: i.p. 1 mg/kg daily for 10 days (T0 to T10); 1 mg/kg
Experimental: Mice were treated with collagen to induce a Th17 rheumatoid arthritis-like inflammation as described by Inglis et al. (2007. Arthritis Res Ther. 9(5):R113) and Geboes et al. (2009. Arthritis Rheum. 60(2):390-5).
Male mice (DBA-1 strain) were subcutaneously-injected with 100 μg collagen per mouse on D0. The hind paw thickness at the ankle level was regularly measured with a caliper. When the ankle thickness had reached around 4 mm (T0, i.e., 30 to 50 days after the collagen injection on D0), mice were daily intraperitoneally-injected for 10 days (T0 to T10) with either vehicle (NaCl 0.9%), Dex, CpdX, CpdX(eA), CpdX(eB), CpdX-D3, CpdX-D3(eA) or CpdX-D3(eB) (1 mg/kg body weight diluted in NaCl 0.9%), and the hind paw thickness at the ankle level was daily measured with a caliper. Pictures of the hind paws were taken at days T0 and T10 (before and after the treatment with either Vehicle, Dex, CpdX, CpdX(eA), CpdX(eB), CpdX-D3, CpdX-D3(eA) or CpdX-D3(eB)), in order to assess the course of swelling.
RNA transcripts were extracted from whole hind paws of collagen-untreated and collagen-treated mice at T0 and T10. IL-1β, IL-6, IL-17a, IL-17f and TNFα transcripts were analyzed by q-RT-PCR.

[3] = tested on: dorsal skin of Balb/C mice; experiment: Skin epidermis atrophy after 8-day topical treatment of dorsal skin; type: in vivo; conditions: eight-day topical treatment
From the text: To investigate whether, similarly to Dex, a topical administration of CpdX could result in a skin atrophy, Balb/C mice were shaved on the dorsal skin. Ethanol (vehicle), Dex, CpdX or either one of its two enantiomers CpdX(eA) or CpdX(eB), as well as the deuterated form CpdX-D3 or either one of its two enantiomers CpdX-D3(eA) or CpdX-D3(eB), were topically applied onto the dorsal skin for 8 days.
Upon completion of the treatments, RNA transcripts were extracted from dorsal skin samples and the transcripts of Kindlin-1 and REDD1 genes were analyzed by q-RT-PCR. Histological and morphometric analyses of the dorsal skin were also performed.

[4] = Blood glucose and intraperitoneal glucose tolerance test (IPGTT) after three-month treatment; type: in vivo, B6 male mice; conditions: three months; glucose i.p. injection
Experimental: B6 male mice (8-week-old) were daily subjected for three months to a subcutaneous injection of either vehicle (NaCl 0.9%), Dex, CpdX, CpdX(eA), CpdX(eB), CpdX-D3, CpdX-D3(eA) or CpdX-D3(eB) (1 mg/kg body weight, diluted in vehicle). Mice were over-night-fasted. Mouse blood glucose concentration was measured before (To) and during two hours (T120) after glucose i.p. injection ([…]).

[5] = tested on: DSS-induced Th17 ulcerative colitis; experiment: Dextran sodium sulfate (DSS)-induced ulcerative colitis; type: in vivo, Balb/C mice; conditions: for pro-inflammatory genes overexpressed in DSS-induced ulcerative colitis (IL-1β, IL-6, IL-17a, IL-17f, TSLP, MMP13): colon, q-RT-PCR, D14; for colonic villus/crypt structure (histology) / mucosal and submucosal cell infiltration (histology): i.p. 1 mg/kg on D11, D12, D13, 3% DSS 13 days
Experimental: To investigate the anti-inflammatory activity of CpdX and CpdX-D3 on a Th17 ulcerative colitis, Balb/C mice were treated with 3% DSS in drinking water for 13 days, with or without an intraperitoneal administration of either Dex, CpdX, CpdX(eA), CpdX(eB), CpdX-D3, CpdX-D3(eA) or CpdX-D3(eB) (1 mg/kg of body weight) on D11, D12 and D13.
At D14, RNA transcripts were extracted from mouse colons. IL-1β, IL-6, IL-17a, IL-17f, TSLP and MMP13 transcripts were analyzed by q-RT-PCR. Colon samples were also harvested for histological analyses (with H&E staining).

[6] = tested on: OVA-induced allergic conjunctivitis; experiment: Ovalbumin (OVA)-induced allergic conjunctivitis; type: in vivo, Balb/C mice; conditions: 0.1% instillation D22 to D24, 20 minutes after the last OVA challenge
Experimental: To investigate the anti-inflammatory effect of CpdX or CpdX-D3 on an allergic conjunctivitis, Balb/C mice were intraperitoneally sensitized with 50 μg OVA with alum on both days D1 and D8, and then challenged from D15 to D21 with 250 μg OVA in 5 μL of sterilized vehicle (0.9% NaCl), which were directly instilled onto the conjunctival sac. From D22 to D24, mice were divided into several groups, and received instillations with either OVA alone, OVA together with 0.1% of either Dex, CpdX, CpdX(eA), CpdX(eB), CpdX-D3, CpdX-D3(eA) or CpdX-D3(eB).
The clinical appearance of mouse eyes was evaluated 20 minutes after the last instillation on D24. Clinical signs (conjunctival hyperemia, lid edema and tearing) were scored to evaluate the occurrence and severity of conjunctivitis as described by Gimenes et al. (2015. Experimental Eye Research 134:24-32). Parameters were graded on a scale ranging from 0 to 3, (0=absence, 1=mild, 2=moderate, and 3=severe symptoms), each animal receiving a total clinical score ranging from 0 to 9. The data were expressed as mean±SEM with at least four mice per treatment.

[7] = tested on: adrenal glands; experiment: Corticosterone synthesis and adrenal gland after three-month treatment; type: in vivo, B6 male mice; conditions: three months; for cortex layers, most notably the fasciculata zone, of the adrenal glands (histology) / transcripts of Cyp11a, Cyp11b1 and HSD3β genes in adrenal glands (corticosterone synthesis pathway): s.c. 1 mg/kg daily; for transcripts of Cyp11a, Cyp11b1 and HSD3β genes in adrenal glands (corticosterone synthesis pathway): q-RT-PCR; for plasmatic corticosterone level at 10 a.m.: vs Vehicle
Experimental: B6 male mice (8-week-old) were daily subjected for three months to either a subcutaneous injection of vehicle (NaCl 0.9%), Dex, CpdX, CpdX(eA), CpdX(eB), CpdX-D3, CpdX-D3(eA) or CpdX-D3(eB) (1 mg/kg body weight, diluted in vehicle).
Following this long-term treatment, blood was collected at 10 a.m. and 6 p.m. by retro-orbital puncture in lithium-heparin coated vials, and the plasmatic level of corticosterone was determined. Adrenal glands were harvested and weighted. RNA transcripts were extracted and transcripts of the Cyp11a, Cyp11b1, Cyp11b2 and HSD3β genes were analyzed by q-RT-PCR. Histological analyses of the adrenal glands were also carried out.

Compound	thymus apoptosis (thymus weight) [1]	hind paw thickness at the ankle level [2]	epidermal thickness (morphometric analyses) [3]	blood glucose level during two-hour IPGTT [4]	pro-inflammatory genes overexpressed in DSS-induced ulcerative colitis (IL-1β, IL-6, IL-17a, IL-17f, TSLP, MMP13) [5]	colonic villus/crypt structure (histology) [5]	mucosal and submucosal cell infiltration (histology) [5]	clinical signs of allergic conjunctivitis (conjunctival hyperemia, lid edema and tearing) [6]	cortex layers, most notably the fasciculata zone, of the adrenal glands (histology) [7]	transcripts of Cyp11a, Cyp11b1 and HSD3β genes in adrenal glands (corticosterone synthesis pathway) [7]	plasmatic corticosterone level at 10 a.m. [7]
[2H]C([2H])([2H])Oc1ccc(F)cc1C(C)(C)CC(O)(CNc1ccc2c(c1)COC2=O)C(F)(F)F (single isomer, unassigned; enantiomer b) [CpdX-D3(eB), 5-{4-[2-(methoxy-D3)-5-fluorophenyl]-2-hydroxy-4-methyl-2-(trifluoromethyl)pentylamino}isobenzofuran-1(3H)-one enantiomer B]	did not result in any significant thymus apoptosis	no such decrease	not significantly decreased	no significant difference	similarly repressed	almost reestablished	significantly decreased	considerably reduced	markedly increased	increased	much higher
COc1ccc(F)cc1C(C)(C)CC(O)(CNc1ccc2c(c1)COC2=O)C(F)(F)F (single isomer, unassigned; enantiomer b) [CpdX(eB), 5-[4-(5-fluoro-2-methoxyphenyl)-2-hydroxy-4-methyl-2-(trifluoromethyl)-pentylamino]isobenzofuran-1(3H)-one enantiomer B]	did not result in any significant thymus apoptosis	no such decrease	not significantly decreased	no significant difference	similarly repressed	almost reestablished	significantly decreased	considerably reduced	markedly increased	increased	much higher
